Assays:
[1] = test system: A2780 Ovarian Cancer Cells; assay: Cell cycle arrest and annexin V FACs analysis, A2780; format: cell-based; details: 1 μM, FIG. 12
Source text: For controls, there is no cell surface expression as indicated by a lack of a peak in the M2 region.

[2] = test system: Tubulin; assay: Inhibition of taxol-induced microtubule polymerization (turbidity at 350 nm); format: biochemical; details: 20 μM, tubulin 1 mg/ml, FIG. 3
Description: The ability of drugs to inhibit taxol-induced polymerisation of tubulin was measured by turbidity at 350 nm. Tubulin (Cryoskeleton Inc., Denver, Colo.), at a final concentration of 1 mg/ml was incubated at 32° C. in G-PEM buffer [80 mM piperazine-N,N′-bis (2-ethane sulfonic acid) sequisodium salt, 1 mM MgCl2, 1 mM EGTA and 1 mM GTP (pH 6.8)] in the presence of taxol with or without estrone derivatives [20 μM].
STX641 is thought to act as an anti-microtubule agent, i.e. to disrupt microtubule function. To show this, tubulin was incubated in the presence of taxol (a compound known to promote tubulin polymerisation). Taxol induced efficient in vitro microtubule assembly as reflected in the increase in turbidity as measured at 350 nm.

[3] = target: T1, Liver sulphatase (Mus musculus, UniProt P50427); assay: Liver sulphatase activity in nude mice; format: in vivo; details: 20 mg/kg p.o, 3 weeks
T1 construct: from tissue; host or cells: liver of ICRF nude (nu/nu) mice
T1 sequence (P50427 23-624): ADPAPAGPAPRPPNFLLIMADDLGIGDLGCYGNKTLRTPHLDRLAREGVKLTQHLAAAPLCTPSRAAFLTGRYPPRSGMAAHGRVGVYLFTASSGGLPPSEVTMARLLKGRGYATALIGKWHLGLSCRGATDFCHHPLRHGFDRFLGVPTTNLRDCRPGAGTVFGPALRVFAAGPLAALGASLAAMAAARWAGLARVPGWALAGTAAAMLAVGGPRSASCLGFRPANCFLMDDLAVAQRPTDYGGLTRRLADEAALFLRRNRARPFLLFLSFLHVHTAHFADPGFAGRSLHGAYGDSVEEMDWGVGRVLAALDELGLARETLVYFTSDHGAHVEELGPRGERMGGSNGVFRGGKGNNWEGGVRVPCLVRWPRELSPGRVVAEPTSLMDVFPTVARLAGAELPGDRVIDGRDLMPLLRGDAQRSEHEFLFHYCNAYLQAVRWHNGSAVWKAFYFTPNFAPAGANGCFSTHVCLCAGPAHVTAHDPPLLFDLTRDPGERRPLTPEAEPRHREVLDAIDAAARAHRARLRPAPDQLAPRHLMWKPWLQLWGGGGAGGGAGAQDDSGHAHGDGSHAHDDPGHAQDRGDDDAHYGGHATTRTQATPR
Description: Adult female ICRF nude (nu/nu) mice were injected with 10×10^6 MCF-7 cells/0.1 ml Matrigel s.c and tumour growth was monitored weekly. When tumours reached 100-150 mm^3 in volume, the mice were divided into the following groups: […]

[4] = test system: Human Umbilical Vein Cells; assay: 96 well plate MTS proliferation assay, Human Umbilical Vein Cells; format: cell-based; details: read-out: mean inhibition of three wells +/-Sds
Source text: Human Umbilical Vein Cells; 96 well plate MTS proliferation assay, mean inhibition of three wells +/−Sds.

[5] = test system: Human Dermal Fibroblasts; assay: 96 well plate MTS proliferation assay, Human Dermal Fibroblasts; format: cell-based; details: Fibroblast, read-out: mean inhibition of three wells +/-Sds
Source text: Human Dermal Fibroblasts; 96 well plate MTS proliferation assay, mean inhibition of three wells +/−Sds.

| SMILES | G2/M arrest ([1]; 24 hours) | annexin V staining (apoptotic marker), FACs [1] | inhibition of taxol-induced polymerisation of tubulin [2] | Liver sulphatase activity inhibition [3] | inhibition at 0.05 µM ([4]; 0.05 μM) [%] | inhibition at 0.1 µM ([4]; 0.10 μM) [%] | inhibition at 1 µM ([4]; 1.00 μM) [%] | inhibition at 5 µM ([4]; 5.00 μM) [%] | inhibition at 0.05 µM ([5]; 0.05 μM) [%] | inhibition at 0.1 µM ([5]; 0.10 μM) [%] | inhibition at 1 µM ([5]; 1.00 μM) [%] | inhibition at 5 µM ([5]; 5.00 μM) [%] |
| --- | --- | --- | --- | --- | --- | --- | --- | --- | --- | --- | --- | --- |
| COc1cc2c(cc1OS(N)(=O)=O)CCC1C2CC[C@@]2(C)C1CC[C@@H]2CC#N (stereo in doubt) [Compound 33, Sulfamic acid 17-cyanomethyl-2-methoxy-13-methyl-7,8,9,11,12,13,14,15,16,17-decahydro-6H-cyclopenta[a]phenanthren-3-yl ester] | G2/M arrest | marked increase in staining | effectively blocked tubulin assembly | nearly completely inhibited |  |  |  |  |  |  |  |  |
| COc1cc2c(cc1OS(N)(=O)=O)CCC1C2CC[C@@]2(C)C1CC[C@@H]2OS(N)(=O)=O (stereo partly shown) [STX 140, reference compound] |  |  |  | nearly completely inhibited | 7 | 18 | 59 | 49 | 0 | 2 | 9 | 18 |

— patent US7893284B2 (Sterix Limited, priority 2004, dated 2011)
